Where two headings read alike, the source gives them in different places. Where a SMILES comes first, the peptide text is derived from it.
System: wild-type (wt) Salmonella enterica serovar Typhimurium strain SL1344
Protocol: MIC values were determined by broth microdilution according to standard protocols with a few modifications ([26]). An overnight bacterial cell culture, supplemented with the appropriate antibiotic when needed, was diluted 1:100 in fresh MHB and grown to OD600 0.5. The obtained culture was diluted to ∼10^5 cfu/ml or 10^6 cfu/ml, as indicated, in non-cation-adjusted MHB. Subsequently, 190 μl bacterial solution was dispensed into a 96-well plate (Thermo Fisher Scientific) along with 10 μl of a 20x PPNA, PNA or peptide working solution. Growth was monitored by measuring the OD at 600 nm every 20 min in a Synergy H1 plate reader (Biotek) with continuous double-orbital shaking (237 cpm) at 37°C for 24 h.

[1] = wild-type (wt) serovar Typhimurium strain SL1344, 24 h
[2] = Table 1, ∼10^5 cfu/ml, non-cation-adjusted MHB, 37°C, 24 h, lowest concentration with OD600 < 0.1

Molecule | MIC [1] | MIC [2] | MIC (Table 1, ∼10^5 cfu/ml, non-cation-adjusted MHB, 37°C, 24 h)
CC(C)C[C@H](NC(=O)[C@H](CCCNC(=N)N)NC(=O)[C@@H](NC(=O)[C@@H]1CCCN1C(=O)[C@@H]1CCCN1C(=O)[C@@H]1CCCN1C(=O)[C@H](CC(C)C)NC(=O)[C@H](CCCNC(=N)N)NC(=O)[C@@H](NC(=O)[C@@H]1CCCN1C(=O)[C@@H]1CCCN1C(=O)[C@@H]1CCCN1C(=O)[C@H](CC(C)C)NC(=O)[C@H](CCCNC(=N)N)NC(=O)[C@@H](N)C(C)C)C(C)C)C(C)C)C(=O)N1CCC[C@H]1C(=O)N1CCC[C@H]1C(=O)N1CCC[C@H]1C(=O)O [SAP, reference compound] (H-VRLPPPVRLPPPVRLPPP-OH; N-terminus and C-terminus assumed) | >10 µM | – | –
CC(C)C[C@H](NC(=O)[C@H](CCC(=O)O)NC(=O)[C@@H](NC(=O)[C@@H]1CCCN1C(=O)[C@@H]1CCCN1C(=O)[C@@H]1CCCN1C(=O)[C@H](CC(C)C)NC(=O)[C@H](CCC(=O)O)NC(=O)[C@@H](NC(=O)[C@@H]1CCCN1C(=O)[C@@H]1CCCN1C(=O)[C@@H]1CCCN1C(=O)[C@H](CC(C)C)NC(=O)[C@H](CCC(=O)O)NC(=O)[C@@H](N)C(C)C)C(C)C)C(C)C)C(=O)N1CCC[C@H]1C(=O)N1CCC[C@H]1C(=O)N1CCC[C@H]1C(=O)O [SAPE, reference compound] (H-VELPPPVELPPPVELPPP-OH; N-terminus and C-terminus assumed) | >10 µM | – | –
RQIKIWFQNRRMKWKK [ANT-acpP-scr] | – | >10 µM | –
RQIKIWFQNRRMKWKK [ANT-acpP] | – | 3.3 µM | 12 µg/mL
VELPPPVELPPPVELPPP [SAPE-acpP-scr] | – | >10 µM | –
VRLPPPVRLPPPVRLPPP [SAP-acpP-scr] | – | >10 µM | –

From article PMC8096218, “Global RNA profiles show target selectivity and physiological effects of peptide-delivered antisense antibiotics” (Nucleic Acids Research, 2021)
